# From US5686448A (priority 1995, dated 1997)
# “And” between values parts separate entries of the source, which are not always exact repeats. Identical values can stand only once. Like-named read-outs stand apart in the source and are kept apart here.
# Tests used:
# HSV-2 (333 strain) = conditions: for % plaque inhibition: 2 hours pre-incubation
# Procedure: In Series No. 1 of Example No. 1, monolayer cultures of Vero, RK-13 (rabbit kidney), and WISH (human amnion, Hayflick) cells were used in the experiments of Example No. 1. The cells were grown in Basal Minimal Eagle's Media supplemented with 5% fetal calf serum, 1% glutamine, sodium bicarbonate and antibiotics. Cultures were maintained in a maintenance media that was the same media, except that the maintenance media contained 2% fetal calf serum. An F Strain of HSV-1 was chosen because it is a well-known prototype of HSV-1. This F Strain can be obtained from the American Type Culture Collection (ATCC), 12301 Parklawn Drive, Rockville, Md. 20852, at which it is identified as ATC-VR 733. For studies with HSV-2, a G strain of HSV-2 (ATCC-VR 734) and a 333 strain of HSV-2 were selected. These strains also can be obtained from the ATCC.
# Accordingly, the pre-inoculation experiments measured the effect of the drug on a cell that was already infected with the virus. The pre-incubation experiments measured the cell cultures that were treated with the drug prior to the inoculation to determine if these cells then would be permissive or non-permissive to the tested virus. In these experiments, plaque reduction assays provided a quantitative measure of antiviral activity and was deemed to be reliable and objective.
# In the pre-incubation experiments, the media was either decanted or gently aspirated from the cultures. After decanting or aspirating, 1 ml of the drug dilution plus maintenance media was added to the cultures. The cultures that served as virus controls or cell controls received 2 ml of maintenance media. After the pre-treatment period, the media was again aspirated and the cell cultures were infected with the virus.
# When this occurred, the cultures were fixed and stained with crystal violet. The plaque were then carefully counted under the microscope. By such a counting and careful comparison, percentages of plaque inhibition in the treated cultures were then calculated.
# The 333 strain, which can be obtained from ATCC, was used.
# HSV-1 (McKrae strain) [1] = conditions: for No. of Plaques: virus controls 270, 270, 252
# Procedure: All cultures were incubated at 37° C. in a 5% CO2 humidified atmosphere. The cultures were stained with crystal violet to aid in counting the plaque.
# HSV-1 (McKrae strain) [2] = conditions: 20 mg/ml
# [3] = tested on: HSV types 1 and 2 (herpes simplex)
# [4] = Patient J, following day, 1% TEAC ointment topical
# [5] = Patient J, two days after infusion 3.6 cc
# [6] = Patient K, after second infusion
# [7] = Patient B, fourth treatment 4.8 cc
# [8] = Patient B, third treatment 4.5 cc
# [9] = Patient I, three months after second infusion
# 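Throughout, for duration of spots: individual clinical case observations in adult human patients with a history of recurrent HSV type 2 lesions, outcomes described qualitatively as reported symptoms and lesion episodes.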
# 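Throughout, for duration of vesicles: individual clinical case observations in adult human patients with a history of recurrent HSV type 2 lesions, outcomes described qualitatively as reported symptoms and lesion episodes.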
# 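Throughout, for recurrence of lesions or pain: individual clinical case observations in adult human patients with a history of recurrent HSV type 2 lesions, outcomes described qualitatively as reported symptoms and lesion episodes.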
# 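Throughout, for tiny areas under the skin: individual clinical case observations in adult human patients with a history of recurrent HSV type 2 lesions, outcomes described qualitatively as reported symptoms and lesion episodes.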
smiles,measurement,setting,value
"CC[N+](CC)(CC)CC.[Cl-] [TEAC, tetraethylammonium chloride]",sensitivity to TEAC vs HSV-1,HSV-2 (333 strain); 333 strain,even more sensitive to TEAC than HSV-1
same,% plaque inhibition,HSV-2 (333 strain); 12.5 mg/culture,25%
same,% plaque inhibition,HSV-2 (333 strain); 25 mg/culture,42%
same,% plaque inhibition,HSV-2 (333 strain); 50 mg/culture,56%
same,inhibition of in vitro replication,"HSV-2 (333 strain); HSV-2, summary",inhibited the in vitro replication of HSV-1 and HSV-2
same,enhancement of plaque,HSV-1 (McKrae strain) [1]; 12.5 mg/ml,apparent enhancement of plaque
same,No. of Plaques,HSV-1 (McKrae strain) [1]; 12.5 mg/ml,300
same,monolayer appearance,HSV-1 (McKrae strain) [1]; 25 mg/ml,thinned out appearance
same,No. of Plaques,HSV-1 (McKrae strain) [1]; 25 mg/ml,0
same,plaque inhibition,"HSV-1 (McKrae strain) [1]; 12.5, 6.25, 3.125 mg/ml",not significantly effective in achieving plaque inhibition
same,virus yield,"HSV-1 (McKrae strain) [2]; cell, 6 hours P.I., 10^-1",2 PFU/ml
same,virus yield,"HSV-1 (McKrae strain) [2]; cell, 6 hours P.I., 10^-2",5 PFU/ml
same,virus yield,"HSV-1 (McKrae strain) [2]; cell, 6 hours P.I., Und.",12 PFU/ml
same,virus yield,"HSV-1 (McKrae strain) [2]; cell, 10 hours P.I., 10^-1",3 PFU/ml
same,virus yield,"HSV-1 (McKrae strain) [2]; cell, 10 hours P.I., 10^-2",0 PFU/ml
same,virus yield,"HSV-1 (McKrae strain) [2]; cell, 10 hours P.I., Und.",13 PFU/ml
same,virus yield,"HSV-1 (McKrae strain) [2]; cell, 20 hours P.I., 10^-1",5 PFU/ml
same,virus yield,"HSV-1 (McKrae strain) [2]; cell, 20 hours P.I., 10^-2",0 PFU/ml
same,virus yield,"HSV-1 (McKrae strain) [2]; cell, 20 hours P.I., Und.",42 PFU/ml
same,virus yield,"HSV-1 (McKrae strain) [2]; cell, 24 hours P.I., 10^-1",32 PFU/ml
same,virus yield,"HSV-1 (McKrae strain) [2]; cell, 24 hours P.I., 10^-2",10 PFU/ml
same,virus yield,"HSV-1 (McKrae strain) [2]; cell, 24 hours P.I., Und.",58 PFU/ml
same,virus yield,"HSV-1 (McKrae strain) [2]; cell, 28 hours P.I., 10^-1",TMTC
same,virus yield,"HSV-1 (McKrae strain) [2]; cell, 28 hours P.I., 10^-2",15 PFU/ml
same,virus yield,"HSV-1 (McKrae strain) [2]; cell, 28 hours P.I., Und.",W.O.
same,virus yield,"HSV-1 (McKrae strain) [2]; supernatant, 6 hours P.I., 10^-1",0 PFU/ml
same,virus yield,"HSV-1 (McKrae strain) [2]; supernatant, 6 hours P.I., 10^-2",0 PFU/ml
same,virus yield,"HSV-1 (McKrae strain) [2]; supernatant, 6 hours P.I., 10^-3",0 PFU/ml
same,virus yield,"HSV-1 (McKrae strain) [2]; supernatant, 10 hours P.I., 10^-1",0 PFU/ml
same,virus yield,"HSV-1 (McKrae strain) [2]; supernatant, 10 hours P.I., 10^-2",0 PFU/ml
same,virus yield,"HSV-1 (McKrae strain) [2]; supernatant, 10 hours P.I., 10^-3",0 PFU/ml
same,virus yield,"HSV-1 (McKrae strain) [2]; supernatant, 20 hours P.I., 10^-1",0 PFU/ml
same,virus yield,"HSV-1 (McKrae strain) [2]; supernatant, 20 hours P.I., 10^-2",0 PFU/ml
same,virus yield,"HSV-1 (McKrae strain) [2]; supernatant, 20 hours P.I., 10^-3",0 PFU/ml
same,virus yield,"HSV-1 (McKrae strain) [2]; supernatant, 24 hours P.I., 10^-1",0 PFU/ml
same,virus yield,"HSV-1 (McKrae strain) [2]; supernatant, 24 hours P.I., 10^-2",0 PFU/ml
same,virus yield,"HSV-1 (McKrae strain) [2]; supernatant, 24 hours P.I., 10^-3",0 PFU/ml
same,virus yield,"HSV-1 (McKrae strain) [2]; supernatant, 28 hours P.I., 10^-1",0 PFU/ml
same,virus yield,"HSV-1 (McKrae strain) [2]; supernatant, 28 hours P.I., 10^-2",0 PFU/ml
same,virus yield,"HSV-1 (McKrae strain) [2]; supernatant, 28 hours P.I., 10^-3",0 PFU/ml
same,tiny areas under the skin,"HSV type 2; Patient A, about two weeks after third infusion 3.4 cc",disappeared in about a day
same,duration of vesicles,"HSV type 2; Patient A, after first infusion",disappeared in two to three days without pain
same,duration of spots,"HSV type 2; Patient A, after third infusion",24 h
same,recurrence of lesions or pain,"HSV type 2; Patient A, eighteen months after initial exam",no further lesions or pain
same,sciatic pain,"HSV type 2; Patient A, first infusion 2.8 cc of 100 mg/cc",cessation of sciatic pain
same,sciatic nerve pain,"HSV type 2; Patient A, second infusion 3.2 cc",the sciatic nerve pain disappeared during the infusion
same,itching and tingling,HSV type 2; Patient D,itching and tingling disappeared
same,lesions,"HSV type 2; Patient D, two days later",all lesions were improving
same,lesions,"HSV type 2; Patient E, 5 days after third infusion 5 cc",all lesions had cleared up
same,prodome and lesions,"HSV type 2; Patient E, after first infusion",massive prodome with large weeping lesions
same,pinpoint lesions breaking out,"HSV type 2; Patient E, after third infusion",5-6 pinpoint lesions
same,prodome and lesions,"HSV type 2; Patient E, next day after second infusion",no prodome and no lesions
same,breakout,"HSV type 2; Patient E, second day after second infusion",another breakout was occurring
same,lesions,"HSV type 2; Patient E, two days after first infusion",the lesions had started to crust
same,general condition,"HSV type 2; Patient F, about 3 weeks later",completely cleared up
same,lesion,"HSV type 2; Patient F, next day, 3.8 cc",improved
same,new lesions,"HSV type 2; Patient F, nine days after second infusion",on the other side lesions had developed
same,duration of subsequent lesions,"HSV type 2; Patient F, subsequent follow up",12 days and 7 days
same,crusting of lesions,"HSV type 2; Patient G, 4.3 cc",never crusted
same,psoriasis,"HSV type 2; Patient G, 4.3 cc",psoriasis improved
same,time to disappearance of lesions,"HSV type 2; Patient G, 4.3 cc",≤ 48 h
same,lesions,"HSV type 2; Patient G, next day, 4.3 cc",the lesions improving
same,setback,"HSV type 2; Patient H, 6 days later",setback 6 days later when the condition became a visual attack
same,improvement,"HSV type 2; Patient H, following day, 4.6 cc (6.0 mg/kg)",striking improvement
same,further problems,"HSV type 2; Patient H, six months after treatment, besides 2 minor incidents of red spots and some aura",no further problems
same,incidents since treatment,"HSV type 2; Patient J, 12 months later, ointment applied",very few incidents since treatment
same,new vesicles,HSV type 2; [4],2 vesicles
same,tingling and redness,HSV type 2; [4],the tingling and redness had gone
same,duration of lesion,"HSV type 2; Patient J, later attack, 1% TEAC ointment topical",3 days
same,lesions,"HSV type 2; Patient J, three days later, 1% TEAC ointment topical",all the lesions had dried up
same,lesions,HSV type 2; [5],the lesions were drying
same,pain,HSV type 2; [5],the pain had disappeared
same,duration of attacks,HSV type 2; [6],2 to 3 days
same,severity of attacks,HSV type 2; [6],milder severity
same,expected attack,"HSV type 2; Patient K, six weeks after second infusion 3.4 cc",the attack had not occurred
same,oral lesion resolution,"[3]; Patient B, 3 days after first infusion",resolution occurring in a shorter than usual time
same,severity of attack,"[3]; Patient B, about a month after second treatment",the attack was never serious and that no lesion appeared
same,attacks,"[3]; Patient B, about a month later",no more attacks
same,aura and lesion,"[3]; Patient B, day after second 3.7 cc",absence of an aura and no occurrence of the expected lesion except for a very small lesion
same,duration of penile lesions,[3]; [7],8 days
same,value of treatment,[3]; [7],the last treatment appeared of no value
same,recurrences,[3]; [8],recurrences were not eliminated
same,time to disappearance of penile lesion,[3]; [8],2 to 3 days
same,fever blisters,[3]; Patient C,cleared right away
same,labial lesions,[3]; Patient C,two attacks of labial lesions cleared rapidly
same,forehead lesion,"[3]; Patient C, about a month later",crusted relatively quickly
same,further problems,"[3]; Patient C, five and ten months after initial treatment",no further problems
same,lesions,"[3]; Patient C, next day, 3.85 cc (5 mg/kg)",markedly improved
same,infection,"[3]; Patient I, first infusion 4.7 cc",all clear
same,further lesions,[3]; [9],no further lesions until one developed in the preceding week
same,nocturnal headaches,[3]; [9],no further nocturnal headaches
